Square brackets hold non-standard residues; d marks the D form. Peptide text beside a SMILES is read from it.
Molecular target: T1, ETA receptor (ETAR) (Homo sapiens, UniProt P25101)
T1 construct: gene EDNRA
T1 sequence (P25101 21-427): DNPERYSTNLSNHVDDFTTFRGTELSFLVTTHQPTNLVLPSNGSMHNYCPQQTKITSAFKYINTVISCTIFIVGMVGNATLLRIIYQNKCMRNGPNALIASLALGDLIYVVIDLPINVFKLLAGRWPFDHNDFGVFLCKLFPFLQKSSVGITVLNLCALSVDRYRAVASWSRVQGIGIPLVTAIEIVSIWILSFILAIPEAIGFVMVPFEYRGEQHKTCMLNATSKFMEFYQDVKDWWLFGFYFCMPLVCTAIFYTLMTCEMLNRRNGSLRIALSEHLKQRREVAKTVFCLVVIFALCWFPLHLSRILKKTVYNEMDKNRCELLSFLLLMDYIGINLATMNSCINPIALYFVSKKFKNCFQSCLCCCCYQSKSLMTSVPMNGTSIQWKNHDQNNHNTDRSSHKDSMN
Assay: […]ET-1 radioligand displacement, recombinant human ETA in CHO-K1 cells
Format: cell-based
Details: read-out: ETAh 10^-5 M ^a

Compound	Ki [nM]
COc1ccc(CN2C(=O)C[C@H](c3ccc4c(c3)OCO4)[C@H]2C(=O)O)cc1 (racemic) [31h, (±)-trans 3-(1,3-Benzodioxol-5-yl)-1-[(4-methoxyphenyl)methyl]-5-oxo-proline]	3300 ± 1100
CC(C)C[C@@H]1NC(=O)[C@@H](C(C)C)NC(=O)[C@@H]2CCCN2C(=O)[C@@H](CC(=O)O)NC(=O)[C@@H](Cc2c[nH]c3ccccc23)NC1=O [BQ-123] (cyclo(L[dW][dD]P[dV]))	5.4 ± 0.8
